≈ marks a conversion by molar mass, not a printed value.
Key:
Assay type in all cases: functional
Escherichia coli [1] = test: Antimicrobial activity against Escherichia coli R4525 expressing gyrA S83L and D87Y and parC S80I and E84G mutant gene by CLSI method
Escherichia coli [2] = test: Antimicrobial activity against Escherichia coli J53 transconjugate by CLSI method
Escherichia coli [3] = test: Antimicrobial activity against azide-resistant Escherichia coli J53 by CLSI method

Row | Compound | MIC (Escherichia coli [1]) [µg/mL] | MIC (Escherichia coli [2]) [µg/mL] | MIC (Escherichia coli [3]) [µg/mL]
1 | CCN1CCN(c2cc3c(cc2F)c(=O)c(C(=O)O)cn3C2CC2)CC1 [ENROFLOXACIN] | > 32 | 0.5 (≈ 1.39 µM) | 0.01 (≈ 0.0278 µM)
2 | CCn1cc(C(=O)O)c(=O)c2ccc(C)nc21 [NALIDIXIC ACID] | > 256 | 32 (≈ 138 µM) | 4 (≈ 17.2 µM)
3 | CCn1cc(C(=O)O)c(=O)c2cc(F)c(N3CCNCC3)cc21 [NORFLOXACIN] | > 256 | 1 (≈ 3.13 µM) | 0.12 (≈ 0.376 µM)
4 | CC1COc2c(N3CCN(C)CC3)c(F)cc3c(=O)c(C(=O)O)cn1c23 (stereo not drawn) [OFLOXACIN] | > 32 | – | –
5 | C[C@@H]1CN(c2c(F)c(N)c3c(=O)c(C(=O)O)cn(C4CC4)c3c2F)C[C@H](C)N1 [SPARFLOXACIN] | > 32 | 1 (≈ 2.55 µM) | 0.01 (≈ 0.0255 µM)
